# Values of other authors as cited in patent US20220168121A1, “FIBROSIS-INDUCING DRUG-ELUTING STENT FOR BLOCKING ELECTRIC CONDUCTION” (SUNGKWANG MEDICAL FOUNDATION, priority 2019, published 2022).
# Where a name gives a salt, the structure may show the parent alone.
Structure (SMILES),water solubility,stability in a solid state (solid state)
CCCCC(CC)CCC(CC(C)C)OS(=O)(=O)O (stereo not drawn) [sodium tetradecyl sulfate],water soluble,unstable properties in a solid state
CCCCCCCCCCCCCCOS(=O)(=O)O [sodium tetradecyl sulfate],water insoluble,
